Reference: ChEMBL document CHEMBL5375967 (J Med Chem, 2023)
Activity calls are given as the source filed them. No cut-off for these calls is given here.

Columns and labels:
[1] = molecular target: T1, Leukotriene A-4 hydrolase (Homo sapiens, UniProt P09960); test: Inhibition of LTA4H (unknown origin) using Arg-AMC as substrate preincubated with compound for 15 mins followed by substrate addition and measured after every 10 mins for 300 mins by fluorescence based assay
T1 sequence (P09960 whole entry): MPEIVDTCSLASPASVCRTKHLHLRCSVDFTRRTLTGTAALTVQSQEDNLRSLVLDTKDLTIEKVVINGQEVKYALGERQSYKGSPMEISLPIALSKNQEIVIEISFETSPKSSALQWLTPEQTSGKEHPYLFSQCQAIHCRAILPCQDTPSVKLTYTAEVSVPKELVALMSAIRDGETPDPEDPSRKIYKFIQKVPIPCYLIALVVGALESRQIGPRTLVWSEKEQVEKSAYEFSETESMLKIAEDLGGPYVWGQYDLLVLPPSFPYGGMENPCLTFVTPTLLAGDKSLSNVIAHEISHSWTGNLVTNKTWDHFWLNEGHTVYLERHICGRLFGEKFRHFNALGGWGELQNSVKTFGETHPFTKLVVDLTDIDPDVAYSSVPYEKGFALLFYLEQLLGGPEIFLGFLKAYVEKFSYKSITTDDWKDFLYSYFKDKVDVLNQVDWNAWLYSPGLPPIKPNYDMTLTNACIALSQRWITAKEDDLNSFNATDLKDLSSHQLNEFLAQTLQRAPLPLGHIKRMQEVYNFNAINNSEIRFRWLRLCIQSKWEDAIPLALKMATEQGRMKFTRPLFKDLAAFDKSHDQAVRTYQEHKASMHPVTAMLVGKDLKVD

[2] = molecular target: Voltage-gated inwardly rectifying potassium channel KCNH2 (Homo sapiens, UniProt Q12809)
Sequence of Voltage-gated inwardly rectifying potassium channel KCNH2 (Q12809 whole entry): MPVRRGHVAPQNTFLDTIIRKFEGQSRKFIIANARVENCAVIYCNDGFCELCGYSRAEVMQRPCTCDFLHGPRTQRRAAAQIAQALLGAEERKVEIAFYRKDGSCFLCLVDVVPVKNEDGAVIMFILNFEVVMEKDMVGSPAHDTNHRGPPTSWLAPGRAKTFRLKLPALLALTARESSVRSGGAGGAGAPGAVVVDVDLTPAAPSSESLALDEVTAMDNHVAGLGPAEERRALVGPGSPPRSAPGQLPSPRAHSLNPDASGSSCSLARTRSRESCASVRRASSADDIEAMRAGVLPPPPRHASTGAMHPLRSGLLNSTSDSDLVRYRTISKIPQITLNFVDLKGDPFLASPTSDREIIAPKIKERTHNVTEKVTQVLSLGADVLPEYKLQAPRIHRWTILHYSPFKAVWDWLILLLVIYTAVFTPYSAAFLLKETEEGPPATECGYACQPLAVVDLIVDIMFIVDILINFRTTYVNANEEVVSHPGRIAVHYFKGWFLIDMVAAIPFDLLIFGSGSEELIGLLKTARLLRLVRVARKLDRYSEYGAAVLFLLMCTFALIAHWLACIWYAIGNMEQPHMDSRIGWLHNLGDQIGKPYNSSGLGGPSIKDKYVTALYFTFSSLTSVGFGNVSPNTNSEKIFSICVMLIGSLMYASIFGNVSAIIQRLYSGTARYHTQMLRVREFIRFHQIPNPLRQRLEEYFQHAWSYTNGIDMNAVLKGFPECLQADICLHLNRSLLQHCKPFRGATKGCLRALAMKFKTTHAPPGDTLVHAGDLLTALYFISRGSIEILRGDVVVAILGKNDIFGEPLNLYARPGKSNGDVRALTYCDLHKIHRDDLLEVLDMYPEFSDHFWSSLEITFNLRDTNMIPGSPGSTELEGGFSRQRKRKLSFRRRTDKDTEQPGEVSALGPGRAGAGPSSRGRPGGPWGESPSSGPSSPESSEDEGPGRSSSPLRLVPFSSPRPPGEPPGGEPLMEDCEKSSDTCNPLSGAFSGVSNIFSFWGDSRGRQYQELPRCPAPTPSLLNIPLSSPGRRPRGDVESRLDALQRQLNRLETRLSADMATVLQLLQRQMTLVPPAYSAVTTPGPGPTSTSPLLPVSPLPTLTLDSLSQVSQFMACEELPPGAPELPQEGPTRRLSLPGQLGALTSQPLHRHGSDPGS

[3] = Inhibition of calcium ionophore A23187-stimulated LTB4 release in C57BL/6 mouse model at 10 mg/kg, po bid measured after 2 hrs; format: functional
Mus musculus [4] = test: Antiarthritic activity in KRN passive serum-induced arthritis C57BL/6 mouse model assessed as reduction in macrophage numbers at 0.1 to 10 mg/kg, po bid measured on day 7 at 2 hrs after first dose and 14 hrs after second dose; format: functional, organism-based; settings: dose 0.1-10 mg/kg, time 7.0 day
[5] = Metabolic stability in human hepatocyte assessed as intrinsic clearance; format: ADME, cell-based; settings: hepatocytes
in vivo [6] = settings: Sprague-Dawley, rat, iv, 1 mg/kg
in vivo [7] = settings: C57BL/6, mouse, in vivo, po, 10 mg/kg
[8] = Drug concentration in blood of arachidonic acid-induced skin inflammation 129S2/SvPasCrl mouse model at 0.3 mg/kg, po measured after 4 hrs; format: ADME, organism-based; settings: read-out: Ct
in vitro = settings: rat, liver microsomes
[9] = Inhibition of arachidonic acid-stimulated LTB4 release in skin inflammation 129S2/SvPasCrl mouse model at 0.3 mg/kg, po pretreated with compound for 4 hrs followed by arachidonic acid stimulation and measured after 1 hr; format: functional
[10] = AUC (0 to infinity) in dog at 3 mg/kg, po measured upto 24 hrs by LC-MS/MS analysis; format: ADME, organism-based, Canis lupus familiaris; set-up: time < 24 hrs, dose 3 mg/kg, route po; settings: in vivo
[11] = Volume of distribution at steady state in dog at 1 mg/kg, iv measured upto 24 hrs by LC-MS/MS analysis; format: ADME, organism-based, Canis lupus familiaris; settings: in vivo, read-out: Vdss
[12] = Half life in C57BL/6 mouse at 1 mg/kg, iv measured upto 24 hrs by LC-MS/MS analysis; format: ADME, organism-based; settings: in vivo
[13] = Cmax in dog at 3 mg/kg, po measured upto 24 hrs by LC-MS/MS analysis; format: ADME, organism-based, Canis lupus familiaris; set-up: time < 24 hrs, dose 3 mg/kg, route po; settings: in vivo
[14] = tested on: Leukotriene A4 hydrolase (Homo sapiens); test: Inhibition of LTB4 in calcium ionophore A23187-stimulated human PBMC cells at 1 uM pretreated with compound for 15 mins followed by calcium ionophore A23187 induction and measured after 2 hrs by LC-MS/MS analysis; settings: time 135.0 min
[15] = Drug concentration in blood of arachidonic acid-induced skin inflammation 129S2/SvPasCrl mouse model at 3 mg/kg, po measured after 4 hrs; format: ADME, organism-based; settings: read-out: Ct
in vivo [16] = settings: Sprague-Dawley, rat, iv, 1 mg/kg; remark: listed apart in the source
Mus musculus [17] = test: Antiarthritic activity in KRN passive serum-induced arthritis C57BL/6 mouse model assessed as reduction in cellularity at 0.1 to 10 mg/kg, po bid measured on day 7 at 2 hrs after first dose and 14 hrs after second dose; format: functional, organism-based; settings: dose 0.1-10 mg/kg, time 7.0 day
[18] = Metabolic stability in mouse hepatocyte assessed as intrinsic clearance; format: ADME, cell-based; settings: hepatocytes
physchem = settings: octanol/water, pH 7.4
Mus musculus [19] = test: Antiarthritic activity in KRN passive serum-induced arthritis C57BL/6 mouse model assessed as reduction in joint damage at 0.1 to 10 mg/kg, po bid measured on day 7 at 2 hrs after first dose and 14 hrs after second dose; format: functional, organism-based; settings: dose 0.1-10 mg/kg, time 7.0 day
[20] = Volume of distribution at steady state in C57BL/6 mouse at 1 mg/kg, iv measured upto 24 hrs by LC-MS/MS analysis; format: ADME, organism-based; settings: in vivo, read-out: Vdss
[21] = Solubility of compound in FaSSIF at pH 6.8; format: physicochemical
[22] = MRT in dog at 1 mg/kg, iv measured upto 24 hrs by LC-MS/MS analysis; format: ADME, organism-based, Canis lupus familiaris; settings: in vivo
Mus musculus [23] = test: Antiarthritic activity in KRN passive serum-induced arthritis C57BL/6 mouse model assessed as reduction in proteoglycan loss at 0.1 to 10 mg/kg, po bid measured on day 7 at 2 hrs after first dose and 14 hrs after second dose; format: functional, organism-based; settings: dose 0.1-10 mg/kg, time 7.0 day
[24] = Inhibition of neutrophil influx in arachidonic acid-stimulated skin inflammation 129S2/SvPasCrl mouse model assessed as effect on MPO level in skin at 3 mg/kg, po pretreated with compound for 4 hrs followed by arachidonic acid stimulation and measured after 1 hr; format: functional; settings: time 5 hrs
[25] = AUC (0 to infinity) in Wistar rat at 3 mg/kg, po measured upto 24 hrs by LC-MS/MS analysis; format: ADME, organism-based; set-up: time < 24 hrs, dose 3 mg/kg, route po; settings: in vivo
Mus musculus [26] = test: Antiarthritic activity in KRN passive serum-induced arthritis C57BL/6 mouse model assessed as reduction in neutrophil numbers at 0.1 to 10 mg/kg, po bid measured on day 7 at 2 hrs after first dose and 14 hrs after second dose; format: functional, organism-based; settings: dose 0.1-10 mg/kg, time 7.0 day
[27] = MRT in Wistar rat at 1 mg/kg, iv measured upto 24 hrs by LC-MS/MS analysis; format: ADME, organism-based; settings: in vivo
[28] = Oral bioavailability in Wistar rat at 3 mg/kg measured upto 24 hrs by LC-MS/MS analysis; format: ADME, organism-based; settings: in vivo
[29] = MRT in C57BL/6 mouse at 1 mg/kg, iv measured upto 24 hrs by LC-MS/MS analysis; format: ADME, organism-based; settings: in vivo
[30] = Solubility of compound in FeSSIF at pH 6.8; format: physicochemical

- IC50 [1]: < 0.003 µM
- CLH [5]: < 4 µL/min/mg
- concentration at 24 h (in vivo [6]): 32 nM
- concentration at 2 h (in vivo [7]): 2600 nM
- concentration at 4 h [8]: 108 nM
- microsomal CLint (in vitro): 179 µL/min/mg
- AUC(0-inf) [10]: 15 µM·h
- Vd [11]: 7 L/kg
- half-life [12]: 3.4 h
- Cmax [13]: 1180 nM
- inhibition [14]: 100%
- concentration at 4 h [15]: 367 nM
- MRT (in vivo [16]): 4.6 h
- CLH [18]: 6 µL/min/mg
- logD (physchem): 2
- Vd [20]: 1.6 L/kg
- solubility [21]: > 2000 µg/mL
- MRT [22]: 28 h
- AUC(0-inf) [25]: 4.99 µM·h
- MRT [27]: 16 h
- bioavailability [28]: 39%
- MRT [29]: 3.3 h
- solubility [30]: > 2000 µg/mL
SMILES: N[C@H](CO)Cn1ccc(-c2ccc(Oc3ncc(-c4cc[nH]n4)cc3F)cc2)n1
- IC50 [2]: > 30 µM
- inhibition in vivo at 10 mg/kg [3]: 95%
- Activity (Mus musculus [4]): Active
- inhibition in vivo at 0.3 mg/kg [9]: 93%
- Activity (Mus musculus [17]): Active
- Activity (Mus musculus [19]): Active
- Activity (Mus musculus [23]): Active
- inhibition in vivo at 3 mg/kg [24]: 96%
- Activity (Mus musculus [26]): Active
